Target: T1, eGFP-Linker-CBD (CBD domain of Penicillium crustosum endoglucanase EGL1) (Penicillium crustosum, UniProt U6A8H3)
T1 construct: N-terminal eGFP fusion in pET-28a, Ni-column, E. coli BL21(DE3)
T1 sequence (U6A8H3 301-459): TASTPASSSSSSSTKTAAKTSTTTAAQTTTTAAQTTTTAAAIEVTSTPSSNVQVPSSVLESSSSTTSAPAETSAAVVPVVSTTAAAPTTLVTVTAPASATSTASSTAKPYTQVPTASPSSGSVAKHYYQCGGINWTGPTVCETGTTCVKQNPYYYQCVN
Experiment: isothermal titration calorimetry
Settings: 20 mM Tris-HCl pH 7.5, 50 mM NaCl; 25 °C; multi-site binding model; unit not given

`OC[C@H]1O[C@@H](O[C@H]2[C@H](O)[C@@H](O)[C@H](O[C@H]3[C@H](O)[C@@H](O)[C@H](O[C@H]4[C@H](O)[C@@H](O)[C@H](O[C@H]5[C@H](O)[C@@H](O)C(O)O[C@@H]5CO)O[C@@H]4CO)O[C@@H]3CO)O[C@@H]2CO)[C@H](O)[C@@H](O)[C@@H]1O` (stereo partly shown) [cellopentose] was tested, and the Ka was 2.3E4.

Source: publication PMC5419506, “Aromatic amino acids in the cellulose binding domain of Penicillium crustosum endoglucanase EGL1 differentially contribute to the cellulose affinity of the enzyme” (PLoS ONE, 2017)
